Like-named read-outs stand apart in the source and are kept apart here.
Experiments:
[1] = tested on: reactive oxygen species; type: cell-based, mouse; details: Conc 20 μM; for ROS (composite Z-score): normalized score vs mock-treated (DMSO) wells
[2] = tested on: mtOXPHOS transcripts; type: cell-based, mouse; details: Conc 20 μM; for mitoOX (composite Z-score): normalized score vs mock-treated (DMSO) wells
[3] = tested on: OXPHOS gene expression; type: cell-based, mouse; details: Conc 20 μM; for GE-HTS (composite Z-score): normalized score vs mock-treated (DMSO) wells
[4] = tested on: cytochrome c; type: cell-based, mouse; details: Conc 20 μM; for cyt c (composite Z-score): normalized score vs mock-treated (DMSO) wells
[5] = tested on: nuOXPHOS transcripts; type: cell-based, mouse; details: Conc 20 μM; for nucOX (composite Z-score): normalized score vs mock-treated (DMSO) wells
[6] = tested on: cellular dehydrogenase activity; details: Conc 20 μM; for MTT (composite Z-score): normalized score vs mock-treated (DMSO) wells
[7] = tested on: C2C12 myotubes; details: Conc 20 μM; for Viability (composite Z-score): normalized score vs mock-treated (DMSO) wells
[8] = tested on: mitochondrial membrane potential; type: cell-based, mouse; details: Conc 20 μM; for ΔΨm (composite Z-score): normalized score vs mock-treated (DMSO) wells
[9] = normalized composite Z-score vs mock-treated (DMSO) wells
[10] = composite Z-score vs DMSO wells
[11] = composite Z-score vs mock-treated (DMSO) wells

Structure (SMILES): CC(=O)Oc1cc2c(c(C)c1OC(C)=O)CC=C1[C@@]2(C)CC[C@@]2(C)C3C[C@](C)(C(=O)O)CC[C@]3(C)CC[C@]12C (stereo partly drawn) [dihydrocelastryl diacetate]
- ROS (composite Z-score) [1]: −3.182
- mitoOX (composite Z-score) [2]: −3.815
- GE-HTS (composite Z-score) [3]: −1.199
- cyt c (composite Z-score) [4]: −5.617
- nucOX (composite Z-score) [5]: 0.241
- MTT (composite Z-score) [6]: −4.098
- Viability (composite Z-score) [7]: −4.472
- ΔΨm (composite Z-score) [8]: −3.309

Structure (SMILES): CC(=O)O[C@@H]1CC2C(C)(C)C(=O)CC[C@]2(C)C2CC[C@]3(C)C(=CC(=O)O[C@H]3c3ccoc3)[C@@]21C (stereo partly drawn) [dihydrodeoxygedunin]
- ROS [1, 9]: 1.030
- mitoOX [2, 9]: −0.631
- GE-HTS [3, 9]: −1.009
- cyt c [4, 9]: 0.751
- nucOX [5, 9]: −1.073
- MTT [6, 9]: −0.637
- Viability [7, 9]: −0.004
- ΔΨm [8, 9]: 0.443

Structure (SMILES): CN1C[C@H](C(=O)N[C@]2(C)O[C@@]3(O)[C@@H]4CCCN4C(=O)[C@H](Cc4ccccc4)N3C2=O)C[C@@H]2c3cccc4[nH]cc(c34)C[C@H]21 [dihydroergotamine]
- ROS [1, 10]: 1.157
- mitoOX [2, 10]: 0.143
- GE-HTS [3, 10]: 0.008
- cyt c [4, 10]: −0.494
- nucOX [5, 10]: −0.021
- MTT [6, 10]: −0.604
- Viability [7, 10]: 0.293
- ΔΨm [8, 10]: 0.372

Structure (SMILES): COC(=O)C[C@H]1C(C)(C)[C@@H](OC(C)=O)[C@@H]2CC3C4CC(=O)O[C@@H](c5ccoc5)[C@]4(C)CCC3[C@@]1(C)C2=O (stereo partly drawn) [dihydrofissinolide]
- ROS [1, 11]: 1.029
- mitoOX [2, 11]: 0.041
- GE-HTS [3, 11]: −0.253
- cyt c [4, 11]: −0.122
- nucOX [5, 11]: −0.350
- MTT [6, 11]: −1.189
- Viability [7, 11]: 0.139
- ΔΨm [8, 11]: 0.196

Structure (SMILES): COC(=O)[C@@H]1OC(=O)C2OC23[C@@]1(C)CCC1[C@@]2(C)CCC(=O)C(C)(C)C2C[C@@H](OC(C)=O)[C@]13C (stereo partly drawn) [dihydrogedunic acid, methyl ester]
- ROS [1, 11]: 0.411
- mitoOX [2, 11]: 0.438
- GE-HTS [3, 11]: 0.244
- cyt c [4, 11]: −0.443
- nucOX [5, 11]: 0.141
- MTT [6, 11]: −1.062
- Viability [7, 11]: 0.103
- ΔΨm [8, 11]: −0.320

Structure (SMILES): CC(=O)O[C@@H]1C[C@H]2C(C)(C)C(=O)CC[C@]2(C)[C@H]2CC[C@@]3(C)[C@H](c4ccoc4)OC(=O)[C@H]4O[C@]43[C@@]21C [dihydrogedunin]
- ROS [1, 11]: −0.690
- mitoOX [2, 11]: 0.323
- GE-HTS [3, 11]: 0.575
- cyt c [4, 11]: 0.460
- nucOX [5, 11]: 0.613
- MTT [6, 11]: −0.017
- Viability [7, 11]: 0.637
- ΔΨm [8, 11]: 1.079

Structure (SMILES): COC(=O)[C@@H]1OC(=O)[C@H]2O[C@@]23[C@@]1(C)CCC1[C@@]2(C)CCC(=O)C(C)(C)C2C[C@@H](OC(C)=O)[C@]13C (stereo partly drawn) [dihydrogeduninic acid, methyl ester]
- ROS (composite Z-score) [1]: 0.820
- mitoOX (composite Z-score) [2]: 0.289
- GE-HTS (composite Z-score) [3]: 0.739
- cyt c (composite Z-score) [4]: 0.117
- nucOX (composite Z-score) [5]: 0.881
- MTT (composite Z-score) [6]: −1.004
- Viability (composite Z-score) [7]: 0.488
- ΔΨm (composite Z-score) [8]: −0.571

Structure (SMILES): CCCCCC1C(=O)CCC1CC(=O)OC (stereo not drawn) [dihydrojasmonic acid, methyl ester]
- ROS ([1]; composite Z-score vs DMSO): −0.386
- mitoOX ([2]; composite Z-score vs DMSO): 1.068
- GE-HTS ([3]; composite Z-score vs DMSO): 0.948
- cyt c ([4]; composite Z-score vs DMSO): −0.281
- nucOX ([5]; composite Z-score vs DMSO): 0.831
- MTT ([6]; composite Z-score vs DMSO): −0.452
- Viability ([7]; composite Z-score vs DMSO): 0.971
- ΔΨm ([8]; composite Z-score vs DMSO): −0.204

Structure (SMILES): CCCCCC1C(=O)CCC1CC(=O)O (stereo not drawn) [dihydrojasmonic acid]
- ROS [1, 9]: 0.827
- mitoOX [2, 9]: −0.505
- GE-HTS [3, 9]: −0.313
- cyt c [4, 9]: −0.847
- nucOX [5, 9]: −0.168
- MTT [6, 9]: −0.149
- Viability [7, 9]: −1.223
- ΔΨm [8, 9]: −0.294

Structure (SMILES): COc1c(CC(=O)c2cc3c(cc2O)OC(C)(C)C(O)C3)ccc2c1C=CC(C)(C)O2 (stereo not drawn) [dihydromunduletone]
- ROS [1, 9]: −0.049
- mitoOX [2, 9]: −1.248
- GE-HTS [3, 9]: −1.331
- cyt c [4, 9]: −0.146
- nucOX [5, 9]: −1.276
- MTT [6, 9]: −0.805
- Viability [7, 9]: 1.580
- ΔΨm [8, 9]: 2.250

Structure (SMILES): Cc1cc(=O)c2c(O)c3c(cc2o1)OCC(C)CC3 (stereo not drawn) [dihydroptaeroxylin]
- ROS [1, 9]: 0.151
- mitoOX [2, 9]: −0.787
- GE-HTS [3, 9]: −0.581
- cyt c [4, 9]: 0.403
- nucOX [5, 9]: −0.410
- MTT [6, 9]: −0.526
- Viability [7, 9]: 0.605
- ΔΨm [8, 9]: −0.192

Structure (SMILES): COc1ccc(-c2c(O)c3c(OC)c4c(cc3oc2=O)OC(C)(C)CC4)cc1 [dihydrorobustic acid, reference compound]
- ROS ([1]; composite Z-score vs DMSO): −0.115
- mitoOX ([2]; composite Z-score vs DMSO): −0.701
- GE-HTS ([3]; composite Z-score vs DMSO): −0.836
- cyt c ([4]; composite Z-score vs DMSO): 0.757
- nucOX ([5]; composite Z-score vs DMSO): −0.849
- MTT ([6]; composite Z-score vs DMSO): −0.780
- Viability ([7]; composite Z-score vs DMSO): −0.721
- ΔΨm ([8]; composite Z-score vs DMSO): 0.000
